Source: PubChem BioAssay (NCI)
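Grown in 96-well plates, cells were treated for 48 hours with each compound at five concentrations. Insufficient inhibition: endpoint recorded as highest concentration tested. The concentration for 50% growth inhibition is given as GI50. Definition used: TGI = concentration required for complete inhibition of growth.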

How the values were obtained:
Test in all cases: inhibition of tumour cell growth, NCI panel, 48 h
UACC-62 melanoma = test system: UACC-62 melanoma
MDA-MB-435 = test system: MDA-MB-435
COLO 205 colon = test system: COLO 205 colon
HCT-116 colon = test system: HCT-116 colon
NCI-H226 lung = test system: NCI-H226 lung
PC-3 prostate = test system: PC-3 prostate
A498 renal = test system: A498 renal
SNB-75 CNS = test system: SNB-75 CNS
HS 578T breast = test system: HS 578T breast
RXF 393 renal = test system: RXF 393 renal
SF-539 CNS = test system: SF-539 CNS
OVCAR-3 ovarian = test system: OVCAR-3 ovarian
SF-295 CNS = test system: SF-295 CNS
ACHN renal = test system: ACHN renal
RPMI-8226 leukemia = test system: RPMI-8226 leukemia
SK-MEL-28 melanoma = test system: SK-MEL-28 melanoma
SR leukemia = test system: SR leukemia
K-562 leukemia = test system: K-562 leukemia
EKVX NSCLC = test system: EKVX NSCLC
HCT-15 colon = test system: HCT-15 colon
SK-OV-3 ovarian = test system: SK-OV-3 ovarian
SK-MEL-2 melanoma = test system: SK-MEL-2 melanoma
SF-268 CNS = test system: SF-268 CNS
M14 melanoma = test system: M14 melanoma
UACC-257 melanoma = test system: UACC-257 melanoma
HCC-2998 colon = test system: HCC-2998 colon
CCRF-CEM leukemia = test system: CCRF-CEM leukemia
T-47D breast = test system: T-47D breast
SK-MEL-5 melanoma = test system: SK-MEL-5 melanoma
MDA-MB-231 breast = test system: MDA-MB-231 breast
OVCAR-8 ovarian = test system: OVCAR-8 ovarian
NCI-H23 lung = test system: NCI-H23 lung
SW-620 colon = test system: SW-620 colon
UO-31 renal = test system: UO-31 renal
NCI-H460 lung = test system: NCI-H460 lung
HOP-62 NSCLC = test system: HOP-62 NSCLC
HOP-92 NSCLC = test system: HOP-92 NSCLC
NCI-H522 lung = test system: NCI-H522 lung
MOLT-4 leukemia = test system: MOLT-4 leukemia
A549 NSCLC = test system: A549 NSCLC
KM12 colon = test system: KM12 colon
HT29 colon = test system: HT29 colon
BT-549 breast = test system: BT-549 breast
CAKI-1 renal = test system: CAKI-1 renal
OVCAR-4 ovarian = test system: OVCAR-4 ovarian
LOX IMVI melanoma = test system: LOX IMVI melanoma
MCF7 breast = test system: MCF7 breast
MALME-3M melanoma = test system: MALME-3M melanoma
NCI/ADR-RES ovarian = test system: NCI/ADR-RES ovarian
IGROV1 ovarian = test system: IGROV1 ovarian
786-0 renal = test system: 786-0 renal
TK-10 renal = test system: TK-10 renal
SNB-19 CNS = test system: SNB-19 CNS
SN12C renal = test system: SN12C renal
OVCAR-5 ovarian = test system: OVCAR-5 ovarian
HL-60(TB) leukemia = test system: HL-60(TB) leukemia
U251 CNS = test system: U251 CNS
DU-145 prostate = test system: DU-145 prostate

Compound: COc1cc2c(Oc3ccc4[nH]c(C)cc4c3F)ncnc2cc1OCCCN1CCCC1
- GI50 (UACC-62 melanoma): 2.77 µM
- TGI (UACC-62 melanoma): 6.73 µM
- GI50 (MDA-MB-435): 2.75 µM
- TGI (MDA-MB-435): 8.98 µM
- GI50 (COLO 205 colon): 1.83 µM
- TGI (COLO 205 colon): 3.58 µM
- GI50 (HCT-116 colon): 3.96 µM
- TGI (HCT-116 colon): 14.7 µM
- GI50 (NCI-H226 lung): 0.675 µM
- TGI (NCI-H226 lung): 9.15 µM
- GI50 (PC-3 prostate): 4.63 µM
- TGI (PC-3 prostate): 17.5 µM
- GI50 (A498 renal): 0.129 µM
- TGI (A498 renal): 0.72 µM
- GI50 (SNB-75 CNS): 0.959 µM
- TGI (SNB-75 CNS): 5.09 µM
- GI50 (HS 578T breast): 1.32 µM
- TGI (HS 578T breast): 6.89 µM
- GI50 (RXF 393 renal): 1.07 µM
- TGI (RXF 393 renal): 3.31 µM
- GI50 (SF-539 CNS): 0.46 µM
- TGI (SF-539 CNS): 2.47 µM
- GI50 (OVCAR-3 ovarian): 2.25 µM
- TGI (OVCAR-3 ovarian): 7.56 µM
- GI50 (SF-295 CNS): 2.81 µM
- TGI (SF-295 CNS): 13.2 µM
- GI50 (ACHN renal): 1.96 µM
- TGI (ACHN renal): 14.9 µM
- GI50 (RPMI-8226 leukemia): 3.63 µM
- TGI (RPMI-8226 leukemia): 10.7 µM
- GI50 (SK-MEL-28 melanoma): 2.57 µM
- TGI (SK-MEL-28 melanoma): 6.68 µM
- GI50 (SR leukemia): 3.06 µM
- TGI (SR leukemia): 15 µM
- GI50 (K-562 leukemia): 2.15 µM
- TGI (K-562 leukemia): 7.44 µM
- GI50 (EKVX NSCLC): 6.07 µM
- TGI (EKVX NSCLC): 22.1 µM
- GI50 (HCT-15 colon): 3.16 µM
- TGI (HCT-15 colon): 15.2 µM
- GI50 (SK-OV-3 ovarian): 5.53 µM
- TGI (SK-OV-3 ovarian): 19 µM
- GI50 (SK-MEL-2 melanoma): 3.84 µM
- TGI (SK-MEL-2 melanoma): 10.3 µM
- GI50 (SF-268 CNS): 4.06 µM
- TGI (SF-268 CNS): 16.6 µM
- GI50 (M14 melanoma): 1.88 µM
- TGI (M14 melanoma): 3.78 µM
- GI50 (UACC-257 melanoma): 1.75 µM
- TGI (UACC-257 melanoma): 3.53 µM
- GI50 (HCC-2998 colon): 3.77 µM
- TGI (HCC-2998 colon): 11.8 µM
- GI50 (CCRF-CEM leukemia): 3.74 µM
- TGI (CCRF-CEM leukemia): 16.8 µM
- GI50 (T-47D breast): 1.8 µM
- TGI (T-47D breast): 4.72 µM
- GI50 (SK-MEL-5 melanoma): 1.62 µM
- TGI (SK-MEL-5 melanoma): 3.17 µM
- GI50 (MDA-MB-231 breast): 2.54 µM
- TGI (MDA-MB-231 breast): 7.58 µM
- GI50 (OVCAR-8 ovarian): 3.88 µM
- TGI (OVCAR-8 ovarian): 15.6 µM
- GI50 (NCI-H23 lung): 5.17 µM
- TGI (NCI-H23 lung): 22.7 µM
- GI50 (SW-620 colon): 3.77 µM
- TGI (SW-620 colon): 14.7 µM
- GI50 (UO-31 renal): 0.544 µM
- TGI (UO-31 renal): 5.64 µM
- GI50 (NCI-H460 lung): 3.29 µM
- TGI (NCI-H460 lung): 11.6 µM
- GI50 (HOP-62 NSCLC): 2.03 µM
- TGI (HOP-62 NSCLC): 10.5 µM
- GI50 (HOP-92 NSCLC): 0.761 µM
- TGI (HOP-92 NSCLC): 5.2 µM
- GI50 (NCI-H522 lung): 2.33 µM
- TGI (NCI-H522 lung): 5.99 µM
- GI50 (MOLT-4 leukemia): 2.55 µM
- TGI (MOLT-4 leukemia): 13.8 µM
- GI50 (A549 NSCLC): 3.07 µM
- TGI (A549 NSCLC): 13 µM
- GI50 (KM12 colon): 4.33 µM
- TGI (KM12 colon): 15.3 µM
- GI50 (HT29 colon): 1.7 µM
- TGI (HT29 colon): 4.09 µM
- GI50 (BT-549 breast): 2.98 µM
- TGI (BT-549 breast): 10.8 µM
- GI50 (CAKI-1 renal): 2.79 µM
- TGI (CAKI-1 renal): 13.9 µM
- GI50 (OVCAR-4 ovarian): 1.38 µM
- TGI (OVCAR-4 ovarian): 8.99 µM
- GI50 (LOX IMVI melanoma): 1.62 µM
- TGI (LOX IMVI melanoma): 4.31 µM
- GI50 (MCF7 breast): 3.79 µM
- TGI (MCF7 breast): 18.5 µM
- GI50 (MALME-3M melanoma): 2.48 µM
- TGI (MALME-3M melanoma): 7.02 µM
- GI50 (NCI/ADR-RES ovarian): 9.69 µM
- TGI (NCI/ADR-RES ovarian): 24.7 µM
- GI50 (IGROV1 ovarian): 1.45 µM
- TGI (IGROV1 ovarian): 14.2 µM
- GI50 (786-0 renal): 3.57 µM
- TGI (786-0 renal): 13.3 µM
- GI50 (TK-10 renal): 1.57 µM
- TGI (TK-10 renal): 6.98 µM
- GI50 (SNB-19 CNS): 6.47 µM
- TGI (SNB-19 CNS): 22.2 µM
- GI50 (SN12C renal): 3.84 µM
- TGI (SN12C renal): 19.9 µM
- GI50 (OVCAR-5 ovarian): 4.72 µM
- TGI (OVCAR-5 ovarian): 19.5 µM
- GI50 (HL-60(TB) leukemia): 2.04 µM
- TGI (HL-60(TB) leukemia): 4.37 µM
- GI50 (U251 CNS): 1.43 µM
- TGI (U251 CNS): 6.99 µM
- GI50 (DU-145 prostate): 4.66 µM
- TGI (DU-145 prostate): 16 µM
